Test results taken from patent publication US20030166138A1, “Cyclic peptides and analogs useful to treat allergies” (priority 2002, published 2003).
“Also recorded” adds a separate entry of the source.

Columns and labels:
germline ε promoter = assay: GFP reporter assay of IL-4 induced ε promoter-driven transcription in naive A5T4 cells (phenotype transfer); type: cell-based; settings: for activity in blocking epsilon promoter transcription (GFP reporter) when presented in the mutant intein context: mutant intein construct; for activity in blocking epsilon promoter transcription (GFP reporter) when presented in the mutant intein context / Mutant Reporter Ratio (± std) / Wild-Type Reporter Ratio (± std): naive A5T4 cells; for Mutant Reporter Ratio (± std): mutant intein construct (non-cyclic, splicing-deficient), IL-4 stimulated, GFP fluorescence; for Wild-Type Reporter Ratio (± std): wild-type intein construct (cyclic peptide), IL-4 30 U/ml, GFP fluorescence BFP−/BFP+, average of 3 values
Source text: To establish the A5T4 reporter cell line, BJAB cells were infected with a retroviral vector containing an IL-4 responsive 600 bp fragment of the epsilon promoter (Pε) followed by a fusion nucleic acid encoding HBEGF-2a-GFP and a polyadenylation sequence cloned in the reverse orientation into pCGSin (Lorens et al., 2000, Mol. Ther. 1:438-447). Infected cells were induced with IL-4 and single cell sorted by FACS for GFP reporter expression. One of the cell clones identified with the desired profile was designated A5. This cell line was infected with the CtTAIH retroviral vector expressing tTA-VP16 ires hygromycin phosphotranferase gene (Lorens et al., 2000, Virology 272:7) selected with hygromycin and single cell cloned. The clone selected for the screening cell line was characterized for tetracycline regulation and was designated A5T4.
Referring to FIG. 9 or 10, after single cell clones had expanded, cells were replica-plated and grown in the presence or absence of 100 ng/ml Dox for 4 days. Both plates were then stimulated with IL-4 (30 U/ml) and, after 3 more days, both populations were analyzed by FACS to measure GFP fluorescence. FACS data were converted to reporter ratios, which are defined as the ratio of the geometric mean of GFP fluorescence of the +IL-4/+Dox (peptide off) population over the geometric mean of the +IL-4/−Dox (peptide on) population. Cells expressing a cyclic peptide that inhibits germline ε transcription have reporter ratios of >1.1, typically >1.12, >1.13, >1.14 or >1.15.
Phoenix packaging cells were transfected with the retroviral vector illustrated in FIG. 6A encoding a particular cyclic peptide as described in WO 97/27213. Naïve A5T4 cells were infected with the resultant retrovirons and grown for three days. The infected cells (BFP^+) were stimulated with IL-4 (30 U/ml) and, after three days, were assessed by FACS for BFP and GFP fluorescence.
The GFP fluorescence data corresponding to the BFP^−/BFP^+in the presence of IL-4 stimulation were obtained for 34 clones and reporter ratios were calculated therefrom. […] Three others had reporter wt ratios in the range of about 1.12-1.2. The names of the clones, sequences of the regions of the polynucleotides encoding the cyclic peptides SEQ ID NOS:1-23, the sequences of the expressed cyclic peptides SEQ ID NOS:1-23 and their respective reporter ratios are provided in TABLE 1, below (“wild-type” reporter ratios; each reporter ratio is the average of 3 values):
As discussed previously, intein splicing is dependent upon the presence of nucleophilic residues at the splice junctions (underlined in FIG. 6A; see Perler & Adam, 2000, Curr. Opin. Biotechnol. 11:377-383). To confirm that the inhibitory activity of the clones of TABLE 1 was due to the expression of a cyclic peptide, mutants were created that lacked the ability to catalyze the splicing reaction due to the replacement of these three critical underlined nucleophilic residues with alanines. These mutants (illustrated in FIG. 6B) were then used to infect naive A5T4 cells as described above.

[1] = tested on: endogenous germline ε promoter; assay: Quantitative real time PCR (Taqman) of endogenous germline ε transcript in A5T4 cells; type: cell-based; settings: mutant intein context, +IL-4
Experimental: The ability of cyclic peptides SEQ ID NOS:1-20 to inhibit transcription of an endogenous germline ε promoter was confirmed using quantitative real time PCR (Taqman®; Applied Biosystems, Foster City, Calif.). Briefly, A5T4 cells were infected with retrovirus capable of expressing the cyclic peptides (prepared as described above). Cells were first sorted for BFP to ensure that they were retrovirally infected. Several different assay conditions were tested: −Dox/-IL-4, −Dox/+IL-4, +Dox/-IL-4, +Dox/+IL-4. All experiments were conducted in triplicate. BFP positive sorted cells were thereafter maintained in Dox (peptide off). To obtain the −Dox condition, cells were washed 2× with media and maintained in Dox-free culture for 72 hours. Cells in +/−Dox were split to 50,000 cells per ml. The following day, IL-4 was added (30 units/ml) and cells were incubated for 3 days before FACS analysis and pelleting for RNA extraction. The primers and probe used were as follows (the probe was labeled at the 5′-end with Fam and at the 3′-end with Tamra):
The probe spans a splice junction and thus will not detect contaminating DNA in the reaction assay. […] The epsilon inhibition ratio R was calculated by dividing the transcript expression values in the presence of Dox and IL-4 (+IL-4/+Dox) by values in the absence of Dox and presence of IL-4(+IL-4/−Dox). […]

| Substance | activity in blocking epsilon promoter transcription (GFP reporter) when presented in the mutant intein context (germline ε promoter) | Mutant Reporter Ratio (± std) (germline ε promoter) | Wild-Type Reporter Ratio (± std) (germline ε promoter) | block of endogenous ε-transcription [1] | inhibition of ε-promoter induction (germline ε promoter; net increase of geometric mean GFP fluorescence following IL-4 stimulation, BFP+ vs uninfected population, wild-type intein) |
| --- | --- | --- | --- | --- | --- |
| cyclo(S N F T F) | inactive; also recorded: did not strongly block | 1.08 ± 0.05 | 1.28 ± 0.05 | clearly blocked | – |
| cyclo(S E M F S I Q) | inactive | 1.13 ± 0.03 | 1.28 ± 0.03 | – | – |
| cyclo(S N I P Q) | inactive | 1.10 ± 0.02 | 1.20 ± 0.01 | – | – |
| cyclo(S D H S Q) | inactive | 1.06 ± 0.06 | 1.20 ± 0.04 | – | – |
| cyclo(S T G P R) | remained active | 1.18 ± 0.04 | 1.19 ± 0.03 | – | – |
| cyclo(S S C M R) | – | 1.20 ± 0.12 | 1.12 ± 0.03 | – | – |
| cyclo(S R R H C C H) | – | 1.02 ± 0.03 | 1.09 ± 0.03 | – | – |
| cyclo(S F G R S) | inactive | 1.08 ± 0.06 | 1.20 ± 0.02 | – | – |
| cyclo(S W A Q A) | inactive | 1.10 ± 0.04 | 1.25 ± 0.02 | – | – |
| cyclo(S R N W S H) | inactive | 1.06 ± 0.04 | 1.18 ± 0.04 | – | – |
| cyclo(S R V E I) | No significant difference; also recorded: inactive | 1.06 ± 0.06 | 1.53 ± 0.16 | – | 51% |
| cyclo(S L N R I) | remained active | 1.40 ± 0.08 | 1.45 ± 0.07 | – | – |
| cyclo(S S L R W) | decrease in activity | 1.21 ± 0.02 | 1.31 ± 0.05 | – | – |
| cyclo(S S F T) | – | 1.05 ± 0.04 | 1.10 ± 0.03 | – | – |
| cyclo(S V I E Q) | decrease in activity | 1.14 ± 0.04 | 1.22 ± 0.04 | – | – |
| cyclo(S F V T W) | decrease in activity | 1.25 ± 0.06 | 1.46 ± 0.12 | – | – |
| cyclo(S P W K L V G) | inactive | 1.02 ± 0.06 | 1.27 ± 0.03 | – | – |
| cyclo(S Y S Q) | inactive | 1.07 ± 0.01 | 1.18 ± 0.01 | – | – |
| cyclo(S V V T R) | remained active | 1.26 ± 0.03 | 1.19 ± 0.03 | – | – |
| cyclo(S G A D S) | inactive | 1.08 ± 0.05 | 1.23 ± 0.02 | – | – |
| cyclo(S Y F T S C W) | decrease in activity | 1.27 ± 0.01 | 1.36 ± 0.07 | – | – |
| cyclo(S A R F V) | decrease in activity | 1.43 ± 0.03 | 1.52 ± 0.04 | – | – |
| cyclo(S R R D R I) | inactive | 1.08 ± 0.04 | 1.31 ± 0.03 | – | – |
